No end group written: not given here. *: point of attachment. Biotin = O=C1N[C@H]2[C@H](CS[C@H]2CCCCC(=O)*)N1
Tests used:
[1] = system: GST-MLK3 SH3; experiment: specificity ELISA, MLK3; type: binding, human; details: biotinylated peptide ≈2 μM on NeutrAvidin; GST-SH3 0.15 μM, 1–1.5 h; anti-GST-HRP; triplicate (Fig. 8)
Description: (§1) Figure 8. Binding of MIP and NS5A peptides to SH3 domain of other members of MLK subfamily (MLK1–4). To determine whether MIP and NS5A can interact with SH3 domains of MLK1–4 proteins, the purified GST-MLK1–4 SH3 domains were incubated with biotinylated peptides, NS5A peptide ([…]-GGG-K-biotin), MIP ([…]-K-biotin), and MIP-R12A ([…]-K-biotin), immobilized on a NeutrAvidin-coated 96-well ELISA plate. Binding of SH3 domain was detected with anti-GST antibody conjugated to HRP. […] See also Fig. S6.
(§2) Two plasmids, gifts from Dr. Gerardo Morfini, University of Illinois at Chicago, encoding a GST protein fused to either the WT or mutant Y52A of the SH3 domain of MLK3 (UniProt entry Q16584; aa 43–104), respectively, between BamHI and EcoRI sites, were transformed into the Escherichia coli strain Rosetta(DE3)pLysS. DNA fragments encoding the SH3 domain of MLK1 (UniProt entry P80192; aa 52–116), MLK2 (UniProt entry Q02779; aa 16–81), and MLK4 (UniProt entry Q5TCX8; aa 38–102) were commercially prepared as gBlocks® Gene Fragments (Integrated DNA Technologies, Inc.). All coding regions were codon-optimized for E. coli expression. DNA fragments were cleaved with BamHI-HF® and EcoRI-HF® (New England Biolabs) and subsequently ligated into pGex-2T vector. […]

[2] = system: GST-MLK1 SH3; experiment: specificity ELISA, MLK1; type: binding, human; details: biotinylated peptide ≈2 μM on NeutrAvidin; GST-SH3 0.15 μM, 1–1.5 h; anti-GST-HRP; triplicate (Fig. 8)
Description: as §1, §2

[3] = system: GST tag; experiment: binding of MIP to GST tag; details: ELISA
Description: After three washes with PBS containing 0.1% Tween 20 (PBST), retention of the SH3 domain fusion protein in wells was detected with an anti-GST antibody conjugated to horseradish peroxidase (HRP) (GE Healthcare; 45 min; 1:5000 in PBST). Following three washes with PBST, the chromogenic substrate solution 2,2-azinobis(3-ethylbenzthiazoline-6-sulfonic acid) (ABTS; Pierce); 10 ml of 50 mM sodium citrate, pH 4.0; and 100 μl of 3% H2O2 were added to the plate (100 μl/well). The absorbance was measured at 405 nm with a POLARstar OPTIMA microtiter plate reader (BMG Labtech).

[4] = system: GST-MLK2 SH3; experiment: specificity ELISA, MLK2; type: binding, human; details: biotinylated peptide ≈2 μM on NeutrAvidin; GST-SH3 0.15 μM, 1–1.5 h; anti-GST-HRP; triplicate (Fig. 8)
Description: as §1, §2

[5] = system: MLK3 SH3 domain Y52A; experiment: binding to Y52A mutant of MLK3 SH3; set-up: species or system human; details: data not shown
Excerpt: Two plasmids, gifts from Dr. Gerardo Morfini, University of Illinois at Chicago, encoding a GST protein fused to either the WT or mutant Y52A of the SH3 domain of MLK3 (UniProt entry Q16584; aa 43–104), respectively, between BamHI and EcoRI sites, were transformed into the Escherichia coli strain Rosetta(DE3)pLysS. DNA fragments encoding the SH3 domain of MLK1 (UniProt entry P80192; aa 52–116), MLK2 (UniProt entry Q02779; aa 16–81), and MLK4 (UniProt entry Q5TCX8; aa 38–102) were commercially prepared as gBlocks® Gene Fragments (Integrated DNA Technologies, Inc.). All coding regions were codon-optimized for E. coli expression. DNA fragments were cleaved with BamHI-HF® and EcoRI-HF® (New England Biolabs) and subsequently ligated into pGex-2T vector. The resulting DNA constructs, pGex-MLK1 SH3, pGex-MLK2 SH3, and pGex-MLK4 SH3 (verified by sequencing) were transformed into E. coli strain BL21(DE3).

[6] = system: GST-MLK4 SH3; experiment: specificity ELISA, MLK4; type: binding, human; details: biotinylated peptide ≈2 μM on NeutrAvidin; GST-SH3 0.15 μM, 1–1.5 h; anti-GST-HRP; triplicate (Fig. 8)
Description: as §1, §2

[7] = system: SH3 domain of MLK3; details: cited from earlier work
Excerpt: Mixed-lineage protein kinase 3 (MLK3) is widely expressed in a variety of normal and cancerous tissues, such as brain, lung, liver, heart, breast, kidney, pancreas, and skeletal muscle ([34][–][36]). MLK3, also known as MAP3K11, is a serine/threonine protein kinase involved in regulating the JNK, p38, and ERK pathways ([37][–][42]). It is composed of several modules: an SH3 domain, a kinase domain, tandem leucine zippers, a Cdc42/Rac interactive binding (CRIB) motif, several linker regions, and a proline-rich C-terminal tail ([39], [43]). According to the BioGRID interaction database ([44]), M ...

[8] = system: GST fusion partner; experiment: phage ELISA of phage-displayed MIP on GST fusion partner; type: binding; details: duplicate (Fig. 1)
Description: (§3) Figure 1. […] The presence of virions in the supernatant was determined by coating the wells of the microtiter plate with an anti-M13 mAb (anti-M13 Ab). Virions, which were retained in the microtiter plate wells, were detected with anti-M13 mAb conjugated to HRP. […] See also Fig. S1.
Screens for peptide ligands were performed following a protocol published previously ([11]). The purified target protein, GST-MLK3 SH3-WT, was prebound to GSH magnetic beads (Pierce, catalogue number 88821), and nonspecific binding sites were blocked with phosphate-buffered saline (PBS; 137 mM NaCl, 3 mM KCl, 8 mM Na2HPO4, 1.5 mM KH2PO4) containing 3% (w/v) bovine serum albumin (BSA). […] After three rounds of affinity selection, individual phage clones were isolated, and their binding was evaluated via phage ELISA ([11]). Positive clones were then sequenced.

[9] = system: GST-MLK3 SH3; experiment: phage ELISA of phage-displayed MIP and variants on GST-MLK3 SH3; type: binding, human; details: original clone/MIP, anti-M13 mAb-HRP detection, experiments in duplicate, averaged
Description: as §3
Figure 2. […] The MIP sequence, NH2-[…]-COOH, was fused to the N terminus of the pIII capsid protein of bacteriophage M13 ([51]) to facilitate type 3 pentavalent display. Systematic alanine replacements in the peptide were generated by Kunkel mutagenesis ([11]); Ala-1 and Ala-14 were replaced with Val. […] The signal for binding of MIP (WT) to GST-MLK3 SH3 is set as 100%, and other values are normalized to it. […] See also Fig. S2.
Screens for peptide ligands were performed following a protocol published previously ([11]). […] After three rounds of affinity selection, individual phage clones were isolated, and their binding was evaluated via phage ELISA ([11]). […]
All constructs were generated via Kunkel mutagenesis ([11], [57], [58]) and facilitated type 3 (pentavalent) display. […] All constructs were verified by DNA sequencing, and phage clones were evaluated for their binding to the target (GST-MLK3 SH3) via phage ELISA ([11]). […]

[10] = molecular target: T1, GST-MLK3 SH3(43–104) (human, UniProt Q16584 43-104); experiment: ELISA; competition ELISA: GST-MLK3 SH3 (5 μg/ml) preincubated 1–1.5 h with ≈0.01–100 μM unlabeled competitor peptide, then 45 min on biotinylated MIP (≈2 μM) captured via NeutrAvidin; anti-GST-HRP detection; GST tag tested as a control; details: both partners purified
T1 construct: also called GST-MLK3 SH3-WT; SH3 WT
T1 sequence (looked up): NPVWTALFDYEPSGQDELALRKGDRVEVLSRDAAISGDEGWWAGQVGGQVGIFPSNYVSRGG

[11] = molecular target: T1, GST-MLK3 SH3(43–104); experiment: ELISA; details: both partners purified
[12] = molecular target: T2, GST-MLK4 SH3 (UniProt Q5TCX8 38-102); experiment: ELISA; details: both partners purified
T2 construct: also called SH3 domain of MLK4
T2 sequence (looked up): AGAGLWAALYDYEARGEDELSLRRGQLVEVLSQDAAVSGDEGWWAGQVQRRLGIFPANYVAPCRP

[13] = molecular target: T3, GST-MLK1 SH3 (UniProt P80192 52-116); experiment: ELISA; details: both partners purified
T3 construct: also called SH3 domain of MLK1
T3 sequence (looked up): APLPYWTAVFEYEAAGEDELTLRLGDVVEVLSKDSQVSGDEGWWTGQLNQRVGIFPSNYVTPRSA

[14] = molecular target: T4, GST-MLK2 SH3 (UniProt Q02779 16-81); experiment: ELISA; details: both partners purified
T4 construct: also called SH3 domain of MLK2
T4 sequence (looked up): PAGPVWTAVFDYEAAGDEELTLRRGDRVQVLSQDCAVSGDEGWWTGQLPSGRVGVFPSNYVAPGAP

[15] = molecular target: the molecule itself; experiment: SEC

Molecule: CC[C@H](C)[C@H](NC(=O)[C@H](C)N)C(=O)N[C@@H](CCCNC(=N)N)C(=O)N[C@H](C(=O)N[C@@H](CC(N)=O)C(=O)N1CCC[C@H]1C(=O)N[C@@H](CC(N)=O)C(=O)NCC(=O)N[C@H](C(=O)N[C@@H](Cc1c[nH]c2ccccc12)C(=O)N[C@@H](CO)C(=O)N[C@@H](CCCNC(=N)N)C(=O)N[C@@H](CCC(N)=O)C(=O)N[C@@H](C)C(=O)N[C@@H](CCC(=O)O)C(=O)N[C@H](C(=O)N[C@H](C(=O)N[C@@H](CCC(=O)O)C(=O)N[C@@H](CO)C(=O)O)C(C)C)[C@@H](C)O)[C@@H](C)O)[C@@H](C)CC [MIP]
- binding to MLK3 SH3 [1]: bound
- binding to MLK1 SH3 [2]: bound
- interaction with GST tag [3]: no interactions
- binding to MLK2 SH3 [4]: did not bind
- effect of SH3 mutation Y52A on peptide binding [5]: disrupts binding
- binding to MLK4 SH3 [6]: bound

Molecule: HCV NS5A: hepatitis C virus nonstructural 5A protein
- interaction with SH3 domain of MLK3 [7]: interact with the SH3 domain of MLK3 via a PXXPXR motif

Molecule: NH2-AIRINPNGTWSRQAETVES-COOH [phage-displayed MIP, MIP fused to the N terminus of the pIII capsid protein of bacteriophage M13]
- binding to GST fusion partner in phage ELISA [8]: not the GST fusion partner
- binding to GST-MLK3 SH3 in phage ELISA [9]: bind to the WT form of the MLK3 SH3 domain

B1: unlabeled MIP (synthetic) (peptide)
peptide: AIRINPNGTWSRQAETVES
notes: also called MIP(1–19); soluble MIP peptide; source: synthetic peptide
- IC50 [10]: 15.8 ± 0.4 µM
- IC50 [11]: 6.6 ± 1.6 µM

B2: biotinylated NS5A peptide ([…]-GGG-K-biotin) (peptide)
peptide: KKAPTPPPRRRRGGGK(Biotin)
notes: also called immobilized NS5A; source: synthetic peptide
- binding result [11]: binds
- binding result [12]: binds
- binding result [13]: binds
- binding result [14]: binds

B3: MLK3 SH3(41–105)-MIP(1–13) fusion protein (other, human)
chain: YANPVWTALFDYEPSGQDELALRKGDRVEVLSRDAAISGDEGWWAGQVGGQVGIFPSNYVSRGGGAIRINPNGTWSRQ
notes: also called the WT construct
- binding result [15]: binds
